The test system of experiment [1] is Rattus norvegicus. Description: Hypotensive activity against normotensive anesthetized Wistar rat assessed as reduction in mean arterial blood pressure up to 5 mg/kg, iv.
The subject of experiment [2] is Rattus norvegicus. The experiment in a line: Hypotensive activity against normotensive anesthetized Wistar rat assessed as reduction in mean arterial blood pressure up to 5 ug/kg, iv. The format is functional, organism-based.
The subject of experiment [3] is Rattus norvegicus. Description: Hypotensive activity against normotensive anesthetized Wistar rat assessed as reduction in mean arterial blood pressure at 3 ug/kg, iv. The format is functional. The arrangement: scale not given: the % may be the effect or the level left.
Experiment [4] concerns Rattus norvegicus. Description: Hypotensive activity against normotensive anesthetized Wistar rat assessed as reduction in mean arterial blood pressure at 3 mg/kg, iv. The arrangement: scale not given: the % may be the effect or the level left.
Experiment [5] relates to Rattus norvegicus. Description: Hypotensive activity against normotensive anesthetized Wistar rat assessed as reduction in mean arterial blood pressure at 1 ug/kg, iv. The format is functional. Also on record: scale not given: the % may be the effect or the level left.

Active and inactive are the calls of the source. The rule behind the calls is not given here.

Regarding `C[C@@H]1O[C@@H](Oc2ccc(CC#N)cc2)[C@H](O)[C@H](O)[C@H]1O`, in the experiment on Rattus norvegicus [1], the result was inactive. Turning to `CCOC(=S)NCc1ccc(O[C@@H]2O[C@@H](C)[C@H](OC(C)=O)[C@@H](O)[C@H]2O)cc1` [listing 1 of 3 here], the result with Rattus norvegicus [2] was Active.

As to `CC(=O)O[C@@H]1[C@@H](O)[C@@H](O)[C@H](Oc2ccc(CC#N)cc2)O[C@H]1C`, the outcome in the experiment on Rattus norvegicus [1] was inactive. `CCOC(=S)NCc1ccc(O[C@@H]2O[C@@H](C)[C@H](OC(C)=O)[C@@H](O)[C@H]2O)cc1` [listing 2 of 3 here]: the Activity with Rattus norvegicus [3] is listed as 40.33%. `CC(=O)O[C@@H]1[C@@H](O)[C@@H](O)[C@H](Oc2ccc(CN=C=S)cc2)O[C@H]1C`: in the experiment with Rattus norvegicus [1], the result was Active. The Activity in the experiment with Rattus norvegicus [4] was determined as 34.91%. Take `CCOC(=S)NCc1ccc(O[C@@H]2O[C@@H](C)[C@H](OC(C)=O)[C@@H](O)[C@H]2O)cc1` [listing 3 of 3 here]: the Activity in the experiment with Rattus norvegicus [3] is listed as 37.51%. With `CC(=O)OCC[N+](C)(C)C` [ACETYLCHOLINE], in the experiment with Rattus norvegicus [5], the Activity came out at 59.5%.

These data come from ChEMBL document CHEMBL1148059, “Isolation and structure elucidation of new nitrile and mustard oil glycosides from Moringa oleifera and their effect on blood pressure” (1994).
